Assay results: US11708348B2, “Protease inhibitors for treatment of coronavirus infections” (The Scripps Research Institute, priority 2021, dated 2023)
Where two headings read alike, the source gives them in different places.

Tested on: SARS-CoV-2 strain USA-WA1/2020
Assay: microbe, parasite or virus in culture
Assay type: cell-based
Details: Severe acute respiratory syndrome coronavirus 2, HeLa-ACE2, 24 h, HeLa-ACE2 cells, SARS-CoV-2 infection, 24 h, read-out: EC50, uM (Hela)

Row | Compound | EC50 (class symbols) [µM] | EC50 [µM] | other results
1 | CC(C)C[C@H](NC(=O)OC/C=C/c1cccc(Cl)c1)C(=O)N[C@@H](C[C@@H]1CCNC1=O)C(=O)COc1c(F)c(F)cc(F)c1F [Compound 139, (E)-3-(3-chlorophenyl)allyl ((S)-4-methyl-1-oxo-1-(((S)-3-oxo-1-((S)-2-oxopyrrolidin-3-yl)-4-(2,3,5,6-tetrafluorophenoxy)butan-2-yl)amino)pentan-2-yl)carbamate] | – | – | EC50 (cells given as a bound): > 1 µM
2 | CC(C)C[C@H](NC(=O)c1ccc2c(c1)OCO2)C(=O)N[C@@H](C[C@@H]1CCNC1=O)C(=O)COC(F)(F)F [Compound 168, N-((S)-4-methyl-1-oxo-1-(((S)-3-oxo-1-((S)-2-oxopyrrolidin-3-yl)-4-(trifluoromethoxy)butan-2-yl)amino)pentan-2-yl)benzo[d][l,3]dioxole-5-carboxamide] | 0.05 to 0.2 | – | –
3 | CC(C)C[C@H](NC(=O)C(=O)Nc1ccccc1F)C(=O)N[C@@H](C[C@@H]1CCNC1=O)C(=O)COc1c(F)cc(F)cc1F [Compound 131, N1-(2-fluorophenyl)-N2-((S)-4-methyl-1-oxo-1-(((S)-3-oxo-1-((S)-2-oxopyrrolidin-3-yl)-4-(2,4,6-trifluorophenoxy)butan-2-yl)amino)pentan-2-yl)oxalamide] | 0.2 to 0.5 | – | –
4 | CC(C)[C@H](O)CC(=O)N1CC2(CC2)C[C@H]1C(=O)N[C@@H](C[C@@H]1CCNC1=O)C(=O)COC(F)(F)F [Compound 431, (S)-5-((R)-3-hydroxy-4-methylpentanoyl)-N-((S)-3-oxo-1-((S)-2-oxopyrrolidin-3-yl)-4-(trifluoromethoxy)butan-2-yl)-5-azaspiro[2.4]heptane-6-carboxamide] | – | 0.05 to 0.2 | –
5 | CC(C)(F)c1cc(C(=O)N2C[C@@H]3CCC[C@@H]3[C@H]2C(=O)N[C@@H](C[C@@H]2CCNC2=O)C(=O)COC(F)(F)F)no1 [Compound 491, (1S,3aR,6aS)-2-(5-(2-fluoropropan-2-yl)isoxazole-3-carbonyl)-N-((S)-3-oxo-1-((S)-2-oxopyrrolidin-3-yl)-4-(trifluoromethoxy)butan-2-yl)octahydrocyclo-penta[c]pyrrole-1-carboxamide] | – | < 0.05 | –
6 | CN(C(=O)C(=O)NC(C)(C)C)[C@H](C(=O)N[C@@H](C[C@@H]1CCNC1=O)C(=O)COC(F)(F)F)C1CCCC1 [Compound 529, N1-(tert-butyl)-N2-((S)-1-cyclopentyl-2-oxo-2-(((S)-3-oxo-1-((S)-2-oxopyrrolidin-3-yl)-4-(trifluoromethoxy)butan-2-yl)amino)ethyl)-N2-methyloxalamide] | – | 0.05 to 0.2 | –
7 | CC1(C)[C@@H]2[C@@H](C(=O)N[C@@H](C[C@@H]3CCNC3=O)C(=O)COC(F)(F)F)N(C(=O)C(O)c3ccc(F)c(F)c3)C[C@@H]21 (stereo partly drawn) [Compound 401, (1R,2S,5S)-3-(2-(3,4-difluorophenyl)-2-hydroxyacetyl)-6,6-dimethyl-N-((S)-3-oxo-1-((S)-2-oxopyrrolidin-3-yl)-4-(trifluoromethoxy)butan-2-yl)-3-azabicyclo[3.1.0]hexane-2-carboxamide] | < 0.05 | – | –
8 | O=C1NCC[C@H]1C[C@H](NC(=O)[C@@H]1CC2(CC2)CN1C(=O)[C@H]1CCCO1)C(=O)COC(F)(F)F [Compound 305, (S)-N-((S)-3-oxo-1-((S)-2-oxopyrrolidin-3-yl)-4-(trifluoromethoxy)butan-2-yl)-5-((R)-tetrahydrofuran-2-carbonyl)-5-azaspiro[2.4]heptane-6-carboxamide] | 0.2 to 0.5 | – | –
9 | CC(C)C[C@H](NC(=O)C12CCC(CC1)O2)C(=O)N[C@@H](C[C@@H]1CCNC1=O)C(=O)COC(F)(F)F [Compound 309, N-((S)-4-methyl-1-oxo-1-(((S)-3-oxo-1-((S)-2-oxopyrrolidin-3-yl)-4-(trifluoromethoxy)butan-2-yl)amino)pentan-2-yl)-7-oxabicyclo [2.2.1]-heptane-1-carboxamide] | < 0.05 | – | –
10 | C[C@@H]1C[C@H]2[C@H](C[C@H](C(=O)N[C@@H](C[C@@H]3CCNC3=O)C(=O)COC(F)(F)F)N2C(=O)C(=O)NC(C)(C)C)O1 [Compound 547, (2R,3aS,5R,6aS)-4-(2-(tert-butylamino)-2-oxoacetyl)-2-methyl-N-((S)-3-oxo-1-((S)-2-oxopyrrolidin-3-yl)-4-(trifluoromethoxy)butan-2-yl)hexahydro-2H-furo[3,2-b]pyrrole-5-carboxamide] | – | – | EC50 (given as bound): > 1 µM
11 | O=C1NCC[C@H]1C[C@H](NC(=O)[C@@H]1[C@H]2CCC[C@H]2CN1C(=O)C12CCC(CC1)O2)C(=O)COC(F)(F)F [Compound 308, (1S,3aR,6aS)-2-(7-oxabicyclo[2.2.1]-heptane-1-carbonyl)-N-((S)-3-oxo-1-((S)-2-oxopyrrolidin-3-yl)-4-(trifluoromethoxy)butan-2-yl)octahydrocyclo-penta[c]pyrrole-1-carboxamide] | 0.05 to 0.2 | – | –
12 | O=C(N[C@@H](CC1CC1)C(=O)N[C@@H](C[C@@H]1CCNC1=O)C(=O)COC(F)(F)F)C(=O)NC12CC(F)(C1)C2 [Compound 509, N1-((S)-3-cyclopropyl-1-oxo-1-(((S)-3-oxo-1-((S)-2-oxopyrrolidin-3-yl)-4-(trifluoromethoxy)butan-2-yl)amino)propan-2-yl)-N2-(3-fluorobicyclo[1.1.1]-pentan-1-yl)oxalamide] | – | < 0.05 | –
13 | [2H]C([2H])([2H])CCC(=O)N1CC2(CC2)C[C@H]1C(=O)N[C@@H](C[C@@H]1CCNC1=O)C(=O)COC(F)(F)F [Compound 764, (S)-5-(butanoyl-4,4,4-d3)-N-((S)-3-oxo-1-((S)-2-oxopyrrolidin-3-yl)-4-(trifluoromethoxy)butan-2-yl)-5-azaspiro[2.4]heptane-6-carboxamide] | – | 0.05 to 0.2 | –
14 | CC(C)C[C@H](NC(=O)C1COCCO1)C(=O)N[C@@H](C[C@@H]1CCNC1=O)C(=O)COC(F)(F)F (stereo partly drawn) [Compound 247, N-((S)-4-methyl-1-oxo-1-(((S)-3-oxo-1-((S)-2-oxopyrrolidin-3-yl)-4-(trifluoromethoxy)butan-2-yl)amino)pentan-2-yl)-1,4-dioxane-2-carboxamide] | 0.05 to 0.2 | – | –
15 | CC(C)C[C@H](NC(=O)C1CCC(=O)O1)C(=O)N[C@@H](C[C@@H]1CCNC1=O)C(=O)COC(F)(F)F (stereo partly drawn) [Compound 213, N-((S)-4-methyl-1-oxo-1-(((S)-3-oxo-1-((S)-2-oxopyrrolidin-3-yl)-4-(trifluoromethoxy)butan-2-yl)amino)pentan-2-yl)-5-oxotetrahydrofuran-2-carboxamide] | 0.5 to 1 | – | –
16 | CC(C)(F)CCC(=O)N1CC2(CC2)C[C@H]1C(=O)N[C@@H](C[C@@H]1CCNC1=O)C(=O)COC(F)(F)F [Compound 624, (S)-5-(4-fluoro-4-methylpentanoyl)-N-((S)-3-oxo-1-((S)-2-oxopyrrolidin-3-yl)-4-(trifluoromethoxy)butan-2-yl)-5-azaspiro[2.4]heptane-6-carboxamide] | – | 0.05 to 0.2 | –
17 | CC(C)(C)NC(=O)C(=O)N1CC2(CCOCC2)CC1C(=O)N[C@@H](C[C@@H]1CCNC1=O)C(=O)COC(F)(F)F (stereo partly drawn) [Compound 522, 2-(2-(tert-butylamino) -2-oxoacetyl)-N-((S)-3-oxo-1-((S)-2-oxopyrrolidin-3-yl)-4-(trifluoromethoxy)butan-2-yl)-8-oxa-2-azaspiro[4.5]decane-3-carboxamide] | – | 0.5 to 1 | –
18 | COC[C@@H](Nc1ccccc1F)C(=O)N[C@@H](CC(C)C)C(=O)N[C@@H](C[C@@H]1CCNC1=O)C(=O)COC(F)(F)F [Compound 235, (S)-2-((R)-2-((2-fluorophenyl)amino)-3-methoxypropanamido)-4-methyl-N-((S)-3-oxo-1-((S)-2-oxopyrrolidin-3-yl)-4-(trifluoromethoxy)butan-2-yl)pentanamide] | < 0.05 | – | –
19 | CC(C)[C@@H](O)C(=O)N1C[C@H]2[C@@H]([C@H]1C(=O)N[C@@H](C[C@@H]1CCNC1=O)C(=O)COC(F)(F)F)C2(C)C [Compound 357, (1R,2S,5S)-3-((R)-2-hydroxy-3-methylbutanoyl)-6,6-dimethyl-N-((S)-3-oxo-1-((S)-2-oxopyrrolidin-3-yl)-4-(trifluoromethoxy)butan-2-yl)-3-azabicyclo-[3.1.0]hexane-2-carboxamide] | 0.05 to 0.2 | – | –
20 | CC(C)C[C@@H](OC(=O)NC1CCCCC1)C(=O)N1CC2(CC2)C[C@H]1C(=O)N[C@@H](C[C@@H]1CCNC1=O)C(=O)COC(F)(F)F [Compound 330, (R)-4-methyl-1-oxo-1-((S)-6-(((S)-3-oxo-l-((S)-2-oxopyrrolidin-3-yl)-4-(trifluoromethoxy)butan-2-yl)carbamoyl)-5-azaspiro[2.4]heptan-5-yl)pentan-2-yl cyclohexylcarbamate] | < 0.05 | – | –
21 | O=C(NC1CC1)C(=O)N1CC2(CC2)C[C@H]1C(=O)N[C@@H](C[C@@H]1CCNC1=O)C(=O)COC(F)(F)F [Compound 746, (S)-5-(2-(cyclopropylamino)-2-oxoacetyl)-N-((S)-3-oxo-1-((S)-2-oxopyrrolidin-3-yl)-4-(trifluoromethoxy)butan-2-yl)-5-azaspiro[2.4]heptane-6-carboxamide] | – | 0.05 to 0.2 | –
22 | O=C1NCC[C@H]1C[C@H](NC(=O)[C@@H]1CC2(CC2)CN1C(=O)CNS(=O)(=O)Nc1ccccc1)C(=O)COC(F)(F)F [Compound 669, (S)-N-((S)-3-oxo-1-((S)-2-oxopyrrolidin-3-yl)-4-(trifluoromethoxy)butan-2-yl)-5-((N-phenylsulfamoyl)glycyl)-5-azaspiro[2.4]heptane-6-carboxamide] | – | 0.05 to 0.2 | –
23 | O=C1NCC[C@H]1C[C@H](NC(=O)[C@@H]1CC2(CC2)CN1C(=O)CCNS(=O)(=O)Nc1ccccc1)C(=O)COC(F)(F)F [Compound 670, (S)-N-((S)-3-oxo-1-((S)-2-oxopyrrolidin-3-yl)-4-(trifluoromethoxy)butan-2-yl)-5-(3-((N-phenylsulfamoyl)amino)propanoyl)-5-azaspiro[2.4]heptane-6-carboxamide] | – | 0.2 to 0.5 | –
